The source of these data is ChEMBL document CHEMBL5728485, “Biaryloxy derivatives as TTX-S blockers” (2021).

By IC50 is commonly meant the concentration needed to halve the response being measured. Read a low IC50 as greater potency.

Chain of Sodium channel protein type 9 subunit alpha (Q15858 whole entry): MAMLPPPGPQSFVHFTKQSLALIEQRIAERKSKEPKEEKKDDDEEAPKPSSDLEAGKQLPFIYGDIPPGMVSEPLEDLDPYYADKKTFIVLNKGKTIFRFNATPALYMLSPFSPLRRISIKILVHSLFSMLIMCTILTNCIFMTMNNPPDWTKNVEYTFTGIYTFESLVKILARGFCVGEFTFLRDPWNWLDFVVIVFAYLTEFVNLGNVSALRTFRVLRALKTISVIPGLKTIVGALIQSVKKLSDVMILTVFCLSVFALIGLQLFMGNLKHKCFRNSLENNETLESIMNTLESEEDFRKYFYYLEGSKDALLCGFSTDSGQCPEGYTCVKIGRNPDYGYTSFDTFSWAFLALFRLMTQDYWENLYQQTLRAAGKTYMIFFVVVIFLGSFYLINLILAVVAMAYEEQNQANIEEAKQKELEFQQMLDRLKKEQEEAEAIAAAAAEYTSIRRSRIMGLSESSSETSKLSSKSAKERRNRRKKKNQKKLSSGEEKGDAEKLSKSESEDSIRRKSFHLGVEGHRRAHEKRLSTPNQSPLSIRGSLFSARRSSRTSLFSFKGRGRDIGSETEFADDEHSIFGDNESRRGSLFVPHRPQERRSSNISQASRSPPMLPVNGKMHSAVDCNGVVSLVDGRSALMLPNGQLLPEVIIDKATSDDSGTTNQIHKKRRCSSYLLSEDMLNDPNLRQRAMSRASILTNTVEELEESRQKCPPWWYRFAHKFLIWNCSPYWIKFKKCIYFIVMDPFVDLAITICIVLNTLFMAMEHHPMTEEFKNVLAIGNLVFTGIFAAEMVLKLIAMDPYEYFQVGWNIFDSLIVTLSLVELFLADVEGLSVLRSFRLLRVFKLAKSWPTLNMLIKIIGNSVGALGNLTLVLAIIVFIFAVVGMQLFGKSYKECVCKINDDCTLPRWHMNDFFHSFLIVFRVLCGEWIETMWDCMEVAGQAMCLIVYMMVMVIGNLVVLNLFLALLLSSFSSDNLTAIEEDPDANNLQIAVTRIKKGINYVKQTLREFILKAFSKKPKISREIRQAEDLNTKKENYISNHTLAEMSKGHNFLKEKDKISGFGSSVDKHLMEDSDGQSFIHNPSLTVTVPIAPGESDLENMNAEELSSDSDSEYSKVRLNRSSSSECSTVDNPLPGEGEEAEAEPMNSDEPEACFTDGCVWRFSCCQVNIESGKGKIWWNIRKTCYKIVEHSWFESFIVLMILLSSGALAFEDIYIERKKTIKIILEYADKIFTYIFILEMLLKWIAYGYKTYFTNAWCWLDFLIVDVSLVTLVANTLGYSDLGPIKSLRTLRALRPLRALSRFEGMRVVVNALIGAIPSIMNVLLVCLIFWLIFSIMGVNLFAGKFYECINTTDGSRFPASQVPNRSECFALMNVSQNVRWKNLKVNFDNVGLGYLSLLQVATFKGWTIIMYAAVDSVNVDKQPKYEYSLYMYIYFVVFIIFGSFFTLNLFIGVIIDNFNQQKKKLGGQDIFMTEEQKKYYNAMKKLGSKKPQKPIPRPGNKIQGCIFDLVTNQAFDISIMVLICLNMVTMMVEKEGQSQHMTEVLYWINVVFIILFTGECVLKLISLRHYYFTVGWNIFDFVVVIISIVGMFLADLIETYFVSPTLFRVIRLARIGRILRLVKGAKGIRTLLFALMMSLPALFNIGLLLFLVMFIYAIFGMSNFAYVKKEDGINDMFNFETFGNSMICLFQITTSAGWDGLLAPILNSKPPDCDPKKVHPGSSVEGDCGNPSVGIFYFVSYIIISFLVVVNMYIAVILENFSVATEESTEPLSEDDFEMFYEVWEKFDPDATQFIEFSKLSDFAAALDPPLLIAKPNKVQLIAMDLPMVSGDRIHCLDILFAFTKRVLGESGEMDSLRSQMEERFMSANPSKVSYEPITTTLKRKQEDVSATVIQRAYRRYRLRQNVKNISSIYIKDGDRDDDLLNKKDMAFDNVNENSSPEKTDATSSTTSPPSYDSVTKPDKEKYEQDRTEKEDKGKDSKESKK

The experiment addresses Sodium channel protein type 9 subunit alpha (Homo sapiens, UniProt Q15858). The experiment is described as follows: EFS-FRET Assay: This screen is used to determine the effects of compounds on human Nav1.7 channels, utilizing electrical field stimulation (EFS) system in 96-well plate format on FDSS (Hamamatsu Photonics) platform. The changes of membrane potential are monitored with FRET dye pair, DiSBAC2(3) and PTS 18.
The compound `CS(=O)(=O)NC(=O)c1cc(F)c(COc2cccc(-c3ccc(OCC4CC4)nc3)c2)c(F)c1` yielded an IC50 of less than 500 nM.

`CS(=O)(=O)NC(=O)c1ccc(COc2ccc(F)c(-c3ccc(OCC4CC4)nc3)c2)c(F)c1`: the IC50 was less than 500 nM. For the compound `CN(C)C(=O)c1cc(OCC2CC2)cc(-c2cc(F)cc(OCc3ccc(C(=O)NS(C)(=O)=O)cc3F)c2)c1`, the IC50 is less than 500 nM. In the case of `Cc1cc(OCc2ccc(C(=O)NS(C)(=O)=O)cc2F)cc(-c2ccc(OCC3CC3)nc2)c1` it was less than 500 nM; in that of `CS(=O)(=O)NC(=O)c1ccc(COc2cccc(-c3ccnc(OCC4CC4)c3)c2)cc1`, less than 500 nM; in that of `CS(=O)(=O)NC(=O)c1ccc(COc2cccc(-c3ncc(OCC4CC4)cc3Cl)c2)cc1`, less than 500 nM. The compound `Cc1nc(OCC2CCC2)ccc1-c1cc(F)cc(OCc2ccc(C(=O)NS(C)(=O)=O)cc2)c1` came in with an IC50 of less than 500 nM. For `CS(=O)(=O)NC(=O)c1ccc(COc2cc(F)cc(-c3cc(OCCO)cc(OCC4CC4)c3)c2)c(F)c1`, the IC50 was less than 500 nM. In turn, `CS(=O)(=O)NC(=O)c1ccc(COc2cc(F)cc(-c3cnc(OCC4CC4)cn3)c2)cc1` yielded an IC50 of less than 500 nM. `Cc1nc(OCC2CC2)ccc1-c1cc(F)cc(OCc2ccc(C(=O)NS(C)(=O)=O)cc2)c1` showed an IC50 of less than 500 nM. To `CS(=O)(=O)NC(=O)c1ccc(COc2cccc(-c3ccc(OCC4CC(F)(F)C4)nc3)c2)cc1` belongs less than 500 nM. As for `CCS(=O)(=O)NC(=O)c1ccc(COc2cc(F)cc(-c3ccc(OCC4CC4)nc3)c2)cc1`, the IC50 is less than 500 nM. In the case of `O=C(NS(=O)(=O)C1CC1)c1ccc(COc2cccc(-c3ccc(OCC4CC4)nc3)c2)c(F)c1` it was less than 500 nM.

`CS(=O)(=O)NC(=O)c1ccc(COc2ccc(Cl)c(-c3ccc(OCC4CC4)nc3)c2)c(F)c1` yielded an IC50 of less than 500 nM. `CS(=O)(=O)NC(=O)c1ccc(COc2cc(F)cc(-c3cc(OCC(N)=O)cc(OCC4CC4)c3)c2)c(F)c1` yielded an IC50 of less than 500 nM.

`CS(=O)(=O)NC(=O)c1ccc(COc2cccc(-c3cc(OCC4CC4)ccn3)c2)c(F)c1`: the IC50 was less than 500 nM. In the case of `CS(=O)(=O)NC(=O)c1ccc(COc2cccc(-c3cc(OCC4CC4)ncn3)c2)cc1` it was less than 500 nM; in that of `Cc1nc(OCC2CC2)ccc1-c1cccc(OCc2ccc(C(=O)NS(C)(=O)=O)cc2)c1`, less than 500 nM; in that of `CS(=O)(=O)NC(=O)c1ccc(COc2cccc(-c3cncc(OCC4CC4)n3)c2)cc1`, less than 500 nM. The compound `COC1CN(C(=O)c2cc(OCC3CC3)cc(-c3cc(F)cc(OCc4ccc(C(=O)NS(C)(=O)=O)cc4F)c3)c2)C1` had an IC50 of less than 500 nM. To `CS(=O)(=O)NC(=O)c1ccc(COc2cc(F)cc(-c3ccc(OCC4CCOC4)nc3)c2)cc1` (configuration not stated) belongs less than 500 nM; to `Cc1cc(OCC2CCC2)cnc1-c1cccc(OCc2ccc(C(=O)NS(C)(=O)=O)cc2)c1`, less than 500 nM; to `CS(=O)(=O)NC(=O)c1ccc(COc2cccc(-c3ccc(OCC4CC4)nc3)n2)cc1`, less than 500 nM. On to `Cc1nc(OCC2CC2)ncc1-c1cccc(OCc2ccc(C(=O)NS(C)(=O)=O)cc2F)c1`, for which the IC50 is less than 500 nM.

In turn, `CS(=O)(=O)NC(=O)c1ccc(COc2cccc(-c3cc(OCC4CC4)ccn3)c2)cc1` displayed an IC50 of less than 500 nM. In the case of `O=C(NS(=O)(=O)c1cccs1)c1cc(Cl)c(COc2cccc(-c3ccc(OCC4CC4)nc3)c2)cc1F` it was less than 500 nM; in that of `Cc1ccc(OCc2ccc(C(=O)NS(C)(=O)=O)cc2F)cc1-c1ccc(OCC2CC2)nc1`, less than 500 nM; in that of `CS(=O)(=O)NC(=O)c1ccc(COc2cc(-c3ccc(OCC4CC4)nc3)ccc2Cl)cc1`, less than 500 nM. Compound `Cc1cc(OCC2CCC2)cnc1-c1cc(F)cc(OCc2ccc(C(=O)NS(C)(=O)=O)cc2)c1` gave a 50% inhibitory concentration (IC50) of less than 500 nM. Compound `Cc1nc(OCC2CC2)ccc1-c1cccc(OCc2ccc(C(=O)NS(C)(=O)=O)cc2F)c1` yielded an IC50 of less than 500 nM. To `CS(=O)(=O)NC(=O)c1ccc(COc2ccc(F)c(-c3cnc(OCC4CC4)cn3)c2)c(F)c1` belongs less than 500 nM; to `CC(C)S(=O)(=O)NC(=O)c1ccc(COc2cccc(-c3ccc(OCC4CC4)nc3)c2)c(F)c1`, less than 500 nM; to `Cc1c(-c2cc(F)cc(OCc3ccc(C(=O)NS(C)(=O)=O)cc3)c2)ccnc1OCC1CC1`, less than 500 nM. To `CS(=O)(=O)NC(=O)c1ccc(COc2cc(F)cc(-c3cnc(OCC4CC4)nc3)c2)cc1` belongs less than 500 nM; to `CS(=O)(=O)NC(=O)c1cc(C2CC2)c(COc2cccc(-c3ccc(OCC4CC4)nc3)c2)cc1F`, less than 500 nM. With `CS(=O)(=O)NC(=O)c1ccc(COc2cc(F)cc(-c3cccc(OCC4CC4)n3)c2)cc1`, the IC50 is less than 500 nM. With `CS(=O)(=O)NC(=O)c1ccc(COc2cc(-c3ccc(OCC4CC4)nc3)cc(C(F)(F)F)c2)cc1`, the IC50 is less than 500 nM. In the case of `CS(=O)(=O)NC(=O)c1ccc(COc2cccc(-c3cnc(OCC4CCC4)c(CO)c3)c2)c(F)c1` it was less than 500 nM; in that of `CS(=O)(=O)NC(=O)c1ccc(COc2cccc(-c3cnc(OCC4CC4)c(Cl)c3)c2)c(F)c1`, less than 500 nM; in that of `CS(=O)(=O)NC(=O)c1ccc(COc2cccc(-c3cnc(OCC4CCC4)cn3)c2)cc1`, less than 500 nM. `CS(=O)(=O)NC(=O)c1ccc(COc2cccc(-c3ccc(OCC4CCC4)nc3CO)c2)c(F)c1` returned an IC50 of less than 500 nM. To `CS(=O)(=O)NC(=O)c1ccc(COc2cccc(-c3ncc(OCC4CC4)cc3F)c2)c(F)c1` belongs less than 500 nM. In the case of `O=C(NS(=O)(=O)C1CC1)c1ccc(COc2ccc(F)c(-c3ccc(OCC4CC4)nc3)c2)c(F)c1`, the half-maximal inhibitory concentration (IC50) is less than 500 nM. In turn, `CS(=O)(=O)NC(=O)c1ccc(COc2ccc(F)c(-c3cnc(OCC4CC4)c(Cl)c3)c2)c(F)c1` had an IC50 of less than 500 nM. To `CS(=O)(=O)NC(=O)c1ccc(COc2cccc(-c3ccc(OCC4CC4)nc3)c2F)cc1` belongs less than 500 nM; to `CS(=O)(=O)NC(=O)c1ccc(COc2cccc(-c3ccc(OCC4CCOC4)nc3)c2)c(F)c1` (configuration not stated), less than 500 nM; to `Cc1cc(OCc2ccc(C(=O)NS(=O)(=O)C3CC3)cc2F)cc(-c2ccc(OCC3CC3)nc2)c1`, less than 500 nM. To `CS(=O)(=O)NC(=O)c1cc(OC(F)F)c(COc2cccc(-c3ccc(OCC4CC4)nc3)c2)cc1F` belongs less than 500 nM; to `CS(=O)(=O)NC(=O)c1ccc(COc2cc(F)cc(-c3cncc(OCC4CC4)c3)c2)cc1`, less than 500 nM. In the case of `CS(=O)(=O)NC(=O)c1ccc(COc2cccc(-c3cnc(OCC4CC4)cn3)c2)c(F)c1`, the IC50 is less than 500 nM. To `CS(=O)(=O)NC(=O)c1ccc(COc2ccc(Cl)c(-c3ccc(OCC4CC4)nc3)c2)cc1` belongs less than 500 nM; to `O=C(NS(=O)(=O)c1cccs1)c1ccc(COc2cccc(-c3ccc(OCC4CC4)nc3)c2)c(F)c1`, less than 500 nM; to `CS(=O)(=O)NC(=O)c1ccc(COc2cc(F)cc(-c3ccc(OCC4CC4)nc3)c2)nc1`, less than 500 nM. `Cc1cc(OCC2CC2)cnc1-c1cc(F)cc(OCc2ccc(C(=O)NS(C)(=O)=O)cc2)c1`: the half-inhibitory concentration (IC50) is less than 500 nM. Regarding `Cc1c(-c2cc(OCc3ccc(C(=O)NS(C)(=O)=O)cc3F)ccc2F)ccnc1OCC1CC1`, the IC50 was less than 500 nM. In the case of `CS(=O)(=O)NC(=O)c1ccc(COc2cc(F)cc(-c3cnc(OCC4CCC4)c(CO)c3)c2)c(F)c1` it was less than 500 nM; in that of `Cc1c(OCC2CC2)ncnc1-c1cccc(OCc2ccc(C(=O)NS(C)(=O)=O)cc2F)c1`, less than 500 nM.
